One data set addresses human PAI-1 (Homo sapiens, UniProt P05121). As to the kind of experiment: Assay for determining the IC50 of inhibition of PAI-1 (active PAI-1 bound to tPA-coated plate, 33B8 antibody detection). The class given is biochemical. The note with it: human PAI-1 50 ng/ml, pH 7.5. As for the experimental part: Assay for determining the IC50 of inhibition of PAI-1. This assay is based upon the non-SDS dissociable interaction between tPA and active PAI-1. Assay plates are initially coated with human tPA (10 μg/ml). Test compounds are dissolved in DMSO at 10 mM, then diluted with physiologic buffer (pH 7.5) to a final concentration of 1-50 μM. The test compounds are incubated with human PAI-1 (50 ng/ml) for 15 minutes at room temperature. The tPA-coated plate is washed with a solution of 0.05% Tween 20 and 0.1% BSA, then the plate is blocked with a solution of 3% BSA. An aliquot of the test compound/PAI-1 solution is then added to the tPA-coated plate, incubated at room temperature for 1 hour, and washed. Active PAI-1 bound to the plate is assessed by adding an aliquot of a 1:1000 dilution of the 33B8 monoclonal antibody against human PAI-1, and incubating the plate at room temperature for 1 hour (Molecular Innovations, Royal Oak, Mich.). The plate is again washed, and a solution of goat anti-mouse IgG-alkaline phosphatase conjugate is added at a 1:50,000 dilution in goat serum. The plate is incubated 30 minutes at room temperature, washed, and a solution of alkaline phosphatase substrate is added. The plate is incubated 45 minutes at room temperature, and color development is determined at OD405 nm. The quantitation of active PAI-1 bound to tPA at varying concentrations of the test compound is used to determine the IC50. Results are analyzed using a logarithmic best-fit equation. The assay sensitivity is 5 ng/ml of human PAI-1 as determined from a standard curve ranging from 0-100 ng/ml.

pIC50: −log10 of the molar value.

human PAI-1, sequence (P05121 24-402): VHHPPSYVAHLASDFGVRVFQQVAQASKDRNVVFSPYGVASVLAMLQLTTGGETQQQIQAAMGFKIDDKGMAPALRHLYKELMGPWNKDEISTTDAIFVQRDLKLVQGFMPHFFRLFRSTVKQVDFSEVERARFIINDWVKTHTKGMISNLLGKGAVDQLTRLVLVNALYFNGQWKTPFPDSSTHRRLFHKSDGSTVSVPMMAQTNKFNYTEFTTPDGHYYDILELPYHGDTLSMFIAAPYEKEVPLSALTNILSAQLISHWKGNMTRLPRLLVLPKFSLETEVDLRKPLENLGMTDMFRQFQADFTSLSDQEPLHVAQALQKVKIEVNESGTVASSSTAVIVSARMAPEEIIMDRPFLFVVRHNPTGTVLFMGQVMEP

For orientation: melting point means the temperature, or range, at which the solid turns liquid. The term pIC50 denotes −log10 of the IC50, conventionally taken in molar units. A low value points to a high IC50. For the molecule `CC/C(=N\OCCCOc1ccc(C(=O)O)c(NC(=O)c2ccc(C(F)(F)F)cc2)c1)c1ccc(C(C)(C)C)cc1` [Compound 21, 4-[3-({[(1E)-1-(4-tert-butylphenyl)propylidene]amino}oxy)propoxy]-2-{[4-(trifluoromethyl)benzoyl]amino}benzoic Acid], the melting point lay in the range of 149.4 to 151 °C. Further, the pIC50 on human PAI-1 was 4.79. The like results for `O=C(O)c1ccc(OCCCO/N=C/c2cc(C(F)(F)F)cc(C(F)(F)F)c2)cc1O` [Compound 19, 4-{3-[({(E)-[3,5-Bis(trifluoromethyl)phenyl]methylidene}amino)oxy]propoxy}-2-hydroxybenzoic Acid] were, in that order, 181.9 to 183.4 °C and 5.38. Take `O=C(Nc1cc(OCCCO/N=C/c2ccc(C(F)(F)F)cc2)ccc1C(=O)O)c1ccc(C(F)(F)F)cc1` [Compound 22, 2-{[4-(Trifluoromethyl)benzoyl]amino}-4-{3-[({(1E)-[4-(trifluoromethyl)phenyl]methylidene}amino)oxy]propoxy}benzoic Acid]: the melting point lay in the range of 208.6 to 209.6 °C. For the same molecule, the pIC50 against human PAI-1 is 5.38. The like results for `CC(C)(C)c1ccc(/C=N/OCCCOc2ccc(C(=O)O)c(NC(=O)c3cc(C(F)(F)F)cc(C(F)(F)F)c3)c2)cc1` [Compound 27, 2-{[3,5-Bis(trifluoromethyl)benzoyl]amino}-4-[3-({[(1E)-(4-tert-butylphenyl)methylidene]amino}oxy)propoxy]benzoic Acid] were, in that order, 157.5 to 158.5 °C and 4.80. On to `CC(C)(C)c1ccc(/C=N/OCc2ccc(C(=O)O)c(Br)c2)cc1` [Compound 33, 2-Bromo-4-[({[(1E)-(4-tert-butylphenyl)methylidene]amino}oxy)methyl]benzoic Acid], for which the melting point was in the range of 162 to 163 °C. At human PAI-1, this molecule gave a pIC50 of 4.86. The like results for `CC(C)(C)c1ccc(C=NOCCCOc2ccc(CC(=O)O)cc2)cc1` [Compound 4, {4-[3-(4-tert-Butyl-benzylideneaminooxy)-propoxy]-phenyl}-acetic Acid] were, in that order, 56.2 to 59.2 °C and 4.47. `O=C(O)c1ccc(OCCCO/N=C/c2ccc(C(F)(F)F)cc2)cc1NC(=O)c1ccccc1C(F)(F)F` [Compound 25, 2-{[2-(Trifluoromethyl)benzoyl]amino}-4-{3-[({(1E)-[4-(trifluoromethyl)phenyl]methylidene}amino)oxy]propoxy}benzoic acid] gave a melting point of 147.2 to 147.9 °C. The molecule also gave a negative logarithm of the IC50 (pIC50) on human PAI-1 of 4.57. `CC(C)(C)c1ccc(/C=N/OCCOc2ccc(C(=O)O)c(OC(=O)c3ccc(C(C)(C)C)cc3)c2)cc1` [Compound 10, 2-{[4-(tert-Butyl)benzoyl]oxy}-4-{2-[({(E)-[4-(tert-butyl)phenyl]methylidene}amino)oxy]ethoxy}benzoic Acid] came in with a melting point of 148.1 to 150.1 °C. At human PAI-1, this molecule gave a pIC50 of 4.75. Regarding `C/C(=N\OCCOc1ccc(C(=O)O)c(OC(=O)c2ccc(-c3ccccc3)cc2)c1)c1ccccc1` [Compound 15, 2-[([1,1′-Biphenyl]-4-ylcarbonyl)oxy]-4-[2-({[(E)-1-phenylethylidene]amino}oxy)ethoxy]benzoic Acid], the melting point fell in the range of 157.5 to 159.1 °C. For the same molecule, the pIC50 against human PAI-1 is 4.72. Consider `O=C(Nc1cc(OCCCO/N=C/c2ccc(-c3ccccc3)cc2)ccc1C(=O)O)c1cc(C(F)(F)F)cc(C(F)(F)F)c1` [Compound 31, 4-[3-({[(1E)-1,1′-Biphenyl-4-ylmethylidene]amino}oxy)propoxy]-2-{[3,5-bis(trifluoromethyl)benzoyl]amino}benzoic Acid], for which the melting point is 205 to 206 °C (dec.). The pIC50 against human PAI-1 was 4.71. `O=C(Nc1cc(OCCCO/N=C/c2ccc(C(F)(F)F)cc2)ccc1C(=O)O)c1ccc(OC(F)(F)F)cc1` [Compound 30, 2-{[4-(Trifluoromethoxy)benzoyl]amino}-4-{3-[({(1E)-[4-(trifluoromethyl)phenyl]methylidene}amino)oxy]propoxy}benzoic Acid]: at human PAI-1, the pIC50 was 4.80. `CC(C)(C)c1ccc(/C=N/OCCCOc2ccc(C(=O)O)c(NC(=O)c3ccccc3C(F)(F)F)c2)cc1` [Compound 24, 4-[3-({[(1E)-(4-tert-Butylphenyl)methylidene]amino}oxy)propoxy]-2-{[2-(trifluoromethyl)benzoyl]amino}benzoic acid] showed a melting point of 121.1 to 122 °C. This molecule also showed a pIC50 on human PAI-1 of 4.76.

Regarding `O=C(Nc1cc(OCCCO/N=C/c2ccc(C(F)(F)F)cc2)ccc1C(=O)O)c1cc(C(F)(F)F)cc(C(F)(F)F)c1` [Compound 32, 2-{[3,5-Bis(trifluoromethyl)benzoyl]amino}-4-{3-[({(1E)-[4-(trifluoromethyl)phenyl]methylidene}amino)oxy]propoxy}benzoic Acid], the melting point was 218 to 219 °C (dec.). Further, the pIC50 against human PAI-1 was 4.80.

(Values after patent publication US7420083B2, “Substituted aryloximes” (Wyeth, priority 2003, dated 2008).)
